Measured values as given in patent publication US9169215B2, “LPAR—substituted cyanopyrazole compounds” (Hoffmann-La Roche Inc., priority 2012, dated 2015).

Columns and labels:
LPA3 = biological target: T1, LPA3 (Homo sapiens, UniProt Q9UBY5); assay: Calcium flux assay using FLIPR, LPA3 antagonist activity; type: cell-based
T1 sequence (Q9UBY5 1-353): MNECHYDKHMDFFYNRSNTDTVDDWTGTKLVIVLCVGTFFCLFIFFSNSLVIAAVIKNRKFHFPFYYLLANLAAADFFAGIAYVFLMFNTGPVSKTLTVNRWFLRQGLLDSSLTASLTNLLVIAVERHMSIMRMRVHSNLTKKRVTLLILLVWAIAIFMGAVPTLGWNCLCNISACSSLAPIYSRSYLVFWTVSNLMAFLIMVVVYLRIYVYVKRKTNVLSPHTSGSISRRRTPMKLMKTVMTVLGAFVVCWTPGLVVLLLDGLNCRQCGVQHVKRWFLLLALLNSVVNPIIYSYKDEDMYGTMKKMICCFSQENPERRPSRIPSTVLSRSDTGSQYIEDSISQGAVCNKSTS
Method: (§1) Calcium Flux Assay Using Fluorometric Imaging Plate Reader (FLIPR)
(§2) After incubation, both the cell and “assay” plates were brought to the FLIPR and 20 μL of the diluted compounds were transferred to the cell plates by the FLIPR. Compound addition was monitored by FLIPR to detect any agonist activity of the compounds. Plates were then incubated for 30 minutes at RT protected from light. After the incubation, plates were returned to the FLIPR and 20 μL of 4.5× concentrated agonist was added to the cell plates. During the assay, fluorescence readings were taken simultaneously from all 384 wells of the cell plate every 1.5 seconds. Five readings were taken to establish a stable baseline, then 20 μL of sample was rapidly (30 μL/sec) and simultaneously added to each well of the cell plate. The fluorescence was continuously monitored before, during and after sample addition for a total elapsed time of 100 seconds. Responses (increase in peak fluorescence) in each well following agonist addition was determined. The initial fluorescence reading from each well, prior to ligand stimulation, was used as zero baseline value for the data from that well. The responses were expressed as % inhibition of the buffer control.

[1] = biological target: human recombinant LPA1 Lysophospholipid receptor (Homo sapiens, UniProt Q92633); assay: Calcium flux assay using FLIPR, LPA1 antagonist activity; type: cell-based; conditions: for IC50: ChemiScreen calcium-optimized stable cell line, inhibition of agonist-induced calcium flux
human recombinant LPA1 Lysophospholipid receptor, sequence (Q92633 whole entry): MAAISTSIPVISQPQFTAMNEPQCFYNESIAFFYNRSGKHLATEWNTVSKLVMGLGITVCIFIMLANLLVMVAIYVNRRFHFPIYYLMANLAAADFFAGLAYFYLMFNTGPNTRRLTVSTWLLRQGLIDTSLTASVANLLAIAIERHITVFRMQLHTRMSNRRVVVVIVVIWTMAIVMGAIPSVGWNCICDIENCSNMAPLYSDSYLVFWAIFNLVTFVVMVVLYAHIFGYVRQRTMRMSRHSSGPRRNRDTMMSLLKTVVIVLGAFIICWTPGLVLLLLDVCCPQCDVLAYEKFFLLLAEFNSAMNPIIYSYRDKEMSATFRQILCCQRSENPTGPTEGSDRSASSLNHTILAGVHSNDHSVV
Method: as §1
Cell Culture Conditions: The ChemiScreen Calcium-optimized stable cell line containing the human recombinant LPA1 Lysophospholipid receptor was purchased from Chemicon International, Inc./Millipore. The cells were cultured in DMEM-high glucose supplemented with 10% fetal bovine serum, 2 mM glutamine, 100 U/mL penicillin/100 μg/mL streptomycin, 1× non-essential amino acids, 10 mM HEPES and 0.25 mg/mL Geneticin. Cells were harvested with trypsin-EDTA and counted using ViaCount reagent. The cell suspension volume was adjusted to 2.0×10^5 cells/mL with complete growth media. Aliquots of 50 μL were dispensed into 384 well black/clear tissue culture treated plates (BD) and the microplates were placed in a 37° C. incubator overnight. The following day plates were used in the assay.
Dye Loading and Assay: Loading Buffer (FLIPR Calcium-4, Molecular Devices) was prepared by dissolving the contents of one bottle into 100 mL Hank's Balanced Salt Solution containing 20 mM HEPES and 2.5 mM probenecid. Plates were loaded onto Biotek plate washer and growth media was removed and replaced with 20 μL of Hank's Balanced Salt Solution containing 20 mM HEPES and 2.5 mM probenecid, followed by 25 μL of Loading Buffer. The plates were then incubated for 30 minutes at 37° C.
During the incubation, test compounds were prepared by adding 90 μL of HBSS/20 mM HEPES/0.1% BSA buffer to 2 μL of serially diluted compounds. To prepare serial dilutions, 10 mM stocks of compounds were prepared in 100% DMSO. The compound dilution plate was set up as follows: well #1 received 29 μL of stock compound and 31 μL DMSO; wells 2-10 received 40 μL of DMSO; mixed and transferred 20 μL of solution from well #1 into well #2; continued with 1:3 serial dilutions out 10 steps; transferred 2 μL of diluted compound into duplicate wells of 384 well “assay plate” and then added the 90 μL of buffer.
as §2

inhibition at 30 µM (LPA3) [%] | inhibition at 30 µM [1] [%] | IC50 [1] [nM] | inhibition at 10 µM ([1]; @ 10 μM) [%] | inhibition at 5 µM ([1]; @ 5 μM) [%] | Compound
2 | 77.5 | 806 |  |  | COc1cc2ccccc2cc1C(=O)/C(=N\C1CCCC1)n1ncc(C#N)c1N [Example 7, (E)-5-Amino-1-(1-(cyclopentylimino)-2-(3-methoxynaphthalen-2-yl)-2-oxoethyl)-1H-pyrazole-4-carbonitrile]
19.1 | 78.4 | 825 |  |  | COc1cc2c(cc1C(=O)/C(=N\C1CCCC1)n1ncc(C#N)c1N)CCC2 [Example 8, (E)-5-Amino-1-(1-(cyclopentylimino)-2-(6-methoxy-2,3-dihydro-1H-inden-5-yl)-2-oxoethyl)-1H-pyrazole-4-carbonitrile]
29 | 84.9 | 510 |  |  | COc1ccc(C(=O)/C(=N\C2CCCCC2)n2ncc(C#N)c2N)c(OC)c1 [Example 9, (E)-5-Amino-1-(1-(cyclohexylimino)-2-(2,4-dimethoxyphenyl)-2-oxoethyl)-1H-pyrazole-4-carbonitrile]
21 | 88.2 | 111 |  |  | COc1ccc(C(=O)/C(=N\C(C)C)n2ncc(C#N)c2N)c(OC)c1 [Example 10, (E)-5-Amino-1-(2-(2,4-dimethoxyphenyl)-1-(iso-propylimino)-2-oxoethyl)-1H-pyrazole-4-carbonitrile]
23 | 48 |  |  |  | COc1cc(OCc2ccccc2)ccc1C(=O)/C(=N\C1CCCC1)n1ncc(C#N)c1N [Example 11, (E)-5-Amino-1-(2-(4-benzyloxy-2-methoxyphenyl)-1-(cyclopentylimino)-2-oxoethyl)-1H-pyrazole-4-carbonitrile]
14 |  |  |  | 13 | COc1cc(C(=O)/C(=N\C2CCCC2)n2ncc(C#N)c2N)cc(OC)c1OC [Example 12, (E)-5-Amino-1-(1-(cyclopentylimino)-2-(3,4,5-trimethoxyphenyl)-2-oxoethyl)-1H-pyrazole-4-carbonitrile]

Continued, molecule first:

Compound | inhibition at 30 µM (LPA3) [%] | inhibition at 30 µM [1] [%] | IC50 [1] [nM] | inhibition at 10 µM ([1]; @ 10 μM) [%] | inhibition at 5 µM ([1]; @ 5 μM) [%]
COc1ccc(C(=O)/C(=N\C2CCCC2)n2ncc(C#N)c2N)c(OC)c1 [Example 1, (E)-5-Amino-1-(1-(cyclopentylimino)-2-(2,4-dimethoxyphenyl)-2-oxoethyl)-1H-pyrazole-4-carbonitrile] | 22 | 98 | 79.8 |  | 
CCc1ccc(C(=O)/C(=N\C2CCCC2)n2ncc(C#N)c2N)cc1 [Example 2, (E)-5-Amino-1-(1-(cyclopentylimino)-2-(4-ethylphenyl)-2-oxoethyl)-1H-pyrazole-4-carbonitrile] | 13 | 100 | 586 |  | 
N#Cc1cnn(/C(=N/C2CCCC2)C(=O)c2ccc(Br)cc2)c1N [Example 3, (E)-5-Amino-1-(1-(cyclopentylimino)-2-(4-bromophenyl)-2-oxoethyl)-1H-pyrazole-4-carbonitrile] | < 1 | 96 | 2940 |  | 
COc1cc(F)ccc1C(=O)/C(=N\C1CCCC1)n1ncc(C#N)c1N [Example 4, (E)-5-Amino-1-(1-(cyclopentylimino)-2-(4-fluoro-2-methoxyphenyl)-2-oxoethyl)-1H-pyrazole-4-carbonitrile] | 3 | 49 |  |  | 
COc1ccc(C(=O)/C(=N\C2CCCC2)n2ncc(C#N)c2N)c(F)c1 [Example 5, (E)-5-Amino-1-(1-(cyclopentylimino)-2-(2-fluoro-4-methoxyphenyl)-2-oxoethyl)-1H-pyrazole-4-carbonitrile] | < 5 | 99.8 | 74 |  | 
COc1cc(OC)c(C(=O)/C(=N\C2CCCC2)n2ncc(C#N)c2N)cc1OC [Example 6, (E)-5-Amino-1-(1-(cyclopentylimino)-2-(2,4,5-trimethoxyphenyl)-2-oxoethyl)-1H-pyrazole-4-carbonitrile] | 7.5 |  | 3360 | 79.2 | 
